# Test results published in PubChem BioAssay (NCI).
# Values joined by “and” are separate entries in the source; they are usually repeats but may differ in a detail not shown here. Equal entries are not always repeated.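 In this assay, cells in 96-well plates receive the compound at five concentrations for 48 hours. Endpoints are linearly interpolated between the surrounding concentrations. The concentration for 50% growth inhibition is given as GI50. At the TGI there is no net growth.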
# Tests used:
# Assay in all cases: NCI-60 cell line screen, 48 h
# [1] = system: SNB-19 CNS
# [2] = system: MDA-N
# [3] = system: OVCAR-3 ovarian
# [4] = system: HCT-116 colon
# [5] = system: A549 NSCLC
# [6] = system: HS 578T breast
# [7] = system: SK-MEL-2 melanoma
# [8] = system: SN12C renal
# [9] = system: MDA-MB-435
# [10] = system: UO-31 renal
# [11] = system: A498 renal
# [12] = system: CCRF-CEM leukemia
# [13] = system: OVCAR-8 ovarian
# [14] = system: EKVX NSCLC
# [15] = system: SF-539 CNS
# [16] = system: CAKI-1 renal
# [17] = system: MDA-MB-231 breast
# [18] = system: ACHN renal
# [19] = system: HOP-92 NSCLC
# [20] = system: BT-549 breast
# [21] = system: KM12 colon
# [22] = system: SF-295 CNS
# [23] = system: SK-MEL-5 melanoma
# [24] = system: TK-10 renal
# [25] = system: IGROV1 ovarian
# [26] = system: HOP-62 NSCLC
# [27] = system: SW-620 colon
# [28] = system: COLO 205 colon
# [29] = system: SF-268 CNS
# [30] = system: UACC-257 melanoma
# [31] = system: 786-0 renal
# [32] = system: NCI-H226 lung
# [33] = system: DU-145 prostate
# [34] = system: M14 melanoma
# [35] = system: PC-3 prostate
# [36] = system: HCC-2998 colon
# [37] = system: RXF 393 renal
# [38] = system: UACC-62 melanoma
# [39] = system: MOLT-4 leukemia
# [40] = system: MCF7 breast
# [41] = system: RPMI-8226 leukemia
# [42] = system: SNB-75 CNS
# [43] = system: T-47D breast
# [44] = system: OVCAR-5 ovarian
# [45] = system: HCT-15 colon
# [46] = system: SK-MEL-28 melanoma
# [47] = system: LOX IMVI melanoma
# [48] = system: SK-OV-3 ovarian
# [49] = system: NCI-H23 lung
# [50] = system: OVCAR-4 ovarian
# [51] = system: NCI/ADR-RES ovarian
# [52] = system: U251 CNS
# [53] = system: K-562 leukemia
# [54] = system: NCI-H522 lung
# [55] = system: NCI-H460 lung
# [56] = system: MALME-3M melanoma
# [57] = system: SR leukemia
# [58] = system: HT29 colon
# [59] = system: HL-60(TB) leukemia
structure (smiles),measurement,setting,value
N#CCCN(CCN(CCN(C(=O)Nc1ccccc1)c1ccccc1)C(=O)Nc1ccccc1)C(=O)Nc1ccccc1,TGI,[1],> 100 µM
same,TGI,[2],> 100 µM
same,TGI,[3],> 100 µM
same,TGI,[4],> 100 µM
same,TGI,[5],> 100 µM
same,TGI,[6],> 100 µM
same,TGI,[7],> 100 µM
same,TGI,[8],> 100 µM
same,TGI,[9],> 100 µM
same,TGI,[10],> 100 µM
same,TGI,[11],> 100 µM
same,TGI,[12],> 100 µM
same,TGI,[13],> 100 µM
same,TGI,[14],> 100 µM
same,TGI,[15],> 100 µM
same,TGI,[16],> 100 µM
same,TGI,[17],> 100 µM
same,TGI,[18],> 100 µM
same,TGI,[19],> 100 µM
same,TGI,[20],> 100 µM
same,TGI,[21],> 100 µM
same,TGI,[22],> 100 µM
same,TGI,[23],> 100 µM
same,TGI,[24],> 100 µM
same,TGI,[25],> 100 µM
same,TGI,[26],> 100 µM
same,TGI,[27],> 100 µM
same,TGI,[28],> 100 µM
same,TGI,[29],> 100 µM
same,TGI,[30],> 100 µM
same,TGI,[31],> 100 µM
same,TGI,[32],> 100 µM
same,TGI,[33],> 100 µM
same,TGI,[34],> 100 µM
same,TGI,[35],> 100 µM
same,TGI,[36],> 100 µM
same,TGI,[37],> 100 µM
same,TGI,[38],> 100 µM
same,TGI,[39],> 100 µM
same,TGI,[40],> 100 µM
same,TGI,[41],> 100 µM
same,TGI,[42],> 100 µM
same,TGI,[43],> 100 µM
same,TGI,[44],> 100 µM
same,TGI,[45],> 100 µM
same,TGI,[46],> 100 µM
same,TGI,[47],> 100 µM
same,TGI,[48],> 100 µM
same,TGI,[49],> 100 µM
same,TGI,[50],> 100 µM
same,TGI,[51],> 100 µM
same,TGI,[52],> 100 µM
CCCCC(=O)Nc1ccc2cc(C(=O)OC)c(=O)[nH]c2n1,TGI,[1],> 100 µM
same,TGI,[2],> 100 µM
same,TGI,[3],> 100 µM
same,TGI,[4],> 100 µM
same,TGI,[5],> 100 µM
same,TGI,[7],> 100 µM
same,TGI,[8],> 100 µM
same,TGI,[9],> 100 µM
same,TGI,[10],> 100 µM
same,TGI,[11],> 100 µM
same,TGI,[53],> 100 µM
same,TGI,[12],> 100 µM
same,TGI,[13],> 100 µM
same,TGI,[14],> 100 µM
same,TGI,[15],> 100 µM
same,TGI,[16],> 100 µM
same,TGI,[17],> 100 µM
same,TGI,[18],> 100 µM
same,TGI,[54],> 100 µM
same,TGI,[19],> 100 µM
same,TGI,[20],> 100 µM
same,TGI,[55],> 100 µM
same,TGI,[21],> 100 µM
same,TGI,[22],> 100 µM
same,TGI,[23],> 100 µM
same,TGI,[24],> 100 µM
same,TGI,[25],> 100 µM
same,TGI,[26],> 100 µM
same,TGI,[27],> 100 µM
same,TGI,[28],> 100 µM
same,TGI,[29],> 100 µM
same,TGI,[30],> 100 µM
same,TGI,[31],> 100 µM
same,TGI,[56],> 100 µM
same,TGI,[32],> 100 µM
same,TGI,[34],> 100 µM
same,TGI,[35],> 100 µM
same,TGI,[36],> 100 µM
same,TGI,[37],> 100 µM
same,TGI,[39],> 100 µM
same,TGI,[40],> 100 µM
same,TGI,[41],> 100 µM
same,TGI,[42],> 100 µM
same,TGI,[43],> 100 µM
same,TGI,[44],> 100 µM
same,TGI,[45],> 100 µM
same,TGI,[46],> 100 µM
same,TGI,[47],> 100 µM
same,TGI,[48],> 100 µM
same,TGI,[49],> 100 µM
same,TGI,[50],> 100 µM
same,TGI,[51],> 100 µM
same,TGI,[57],> 100 µM
same,TGI,[52],> 100 µM
COC(=O)c1ccc2c(c1)CCN2C(=O)c1cc2c(cc1Br)OCO2,GI50,[1],1.31 µM
same,TGI,[1],12.8 µM and > 100 µM
same,GI50,[2],0.252 µM
same,TGI,[2],0.244 µM and 0.841 µM
same,GI50,[3],0.363 µM
same,TGI,[3],3.99 µM and 1.43 µM
same,GI50,[4],0.677 µM
same,GI50,[5],3.27 µM
same,TGI,[5],50 µM and > 100 µM
same,TGI,[7],5.7 µM and 36.4 µM
same,GI50,[8],3.21 µM
same,TGI,[8],48.3 µM and > 100 µM
same,TGI,[9],0.994 µM
same,GI50,[10],0.817 µM
same,TGI,[10],24.8 µM and 72.1 µM
same,GI50,[11],2.62 µM
same,TGI,[11],30.8 µM and > 100 µM
same,GI50,[53],0.824 µM
same,TGI,[53],50 µM and > 100 µM
same,GI50,[12],0.742 µM
same,TGI,[12],50 µM and > 100 µM
same,GI50,[13],1.52 µM
same,TGI,[13],50 µM and 14.7 µM
same,GI50,[14],3.77 µM
same,TGI,[14],50 µM and > 100 µM
same,GI50,[15],2.93 µM
same,GI50,[16],0.953 µM
same,TGI,[16],50 µM and > 100 µM
same,GI50,[17],2 µM
same,TGI,[17],50 µM and > 100 µM
same,GI50,[58],0.507 µM
same,TGI,[58],50 µM and 12.1 µM
same,GI50,[18],6.56 µM
same,TGI,[18],49.3 µM and > 100 µM
same,GI50,[54],0.0801 µM
same,TGI,[54],0.4 µM and 0.29 µM
same,GI50,[19],0.432 µM
same,TGI,[19],50 µM and 40.3 µM
same,GI50,[20],0.424 µM
same,TGI,[20],45.5 µM and 5.57 µM
same,TGI,[55],50 µM
same,GI50,[21],0.532 µM
same,TGI,[21],50 µM and > 100 µM
same,GI50,[22],0.683 µM
same,TGI,[22],50 µM and > 100 µM
same,GI50,[23],0.581 µM
same,TGI,[23],5.5 µM and 14.1 µM
same,GI50,[24],27.1 µM
same,TGI,[24],37.6 µM and > 100 µM
same,GI50,[25],0.455 µM
same,TGI,[25],50 µM and > 100 µM
same,GI50,[59],0.31 µM
same,TGI,[59],10.2 µM and 17.1 µM
same,TGI,[26],50 µM and > 100 µM
same,TGI,[27],50 µM and > 100 µM
same,GI50,[28],1.13 µM
same,TGI,[28],2.62 µM and 3.9 µM
same,TGI,[29],50 µM
same,GI50,[30],16.6 µM
same,TGI,[30],18.8 µM and 75.1 µM
same,TGI,[31],27.4 µM and > 100 µM
same,TGI,[56],50 µM
same,TGI,[32],4.44 µM
same,GI50,[33],3.02 µM
same,TGI,[33],26.9 µM and > 100 µM
same,GI50,[34],0.652 µM
same,TGI,[34],6.9 µM and 40.4 µM
same,TGI,[35],5.52 µM and 20.6 µM
same,GI50,[36],21.2 µM
same,TGI,[37],4.72 µM
same,GI50,[38],0.995 µM
same,TGI,[38],50 µM and > 100 µM
same,GI50,[39],0.896 µM
same,TGI,[39],12.1 µM and > 100 µM
same,GI50,[40],0.567 µM
same,TGI,[40],50 µM and > 100 µM
same,GI50,[41],1.15 µM
same,TGI,[42],50 µM
same,GI50,[43],0.982 µM
same,TGI,[43],50 µM and 51.9 µM
same,TGI,[44],> 50 µM
same,GI50,[45],0.378 µM
same,TGI,[45],50 µM and 23.5 µM
same,GI50,[46],19.2 µM
same,TGI,[46],50 µM and > 100 µM
same,GI50,[47],0.936 µM
same,TGI,[47],50 µM and 94.7 µM
same,TGI,[48],> 100 µM
same,GI50,[49],0.746 µM
same,TGI,[49],50 µM and 6.16 µM
same,GI50,[50],4.88 µM
same,TGI,[50],50 µM and > 100 µM
same,GI50,[51],0.262 µM
same,TGI,[51],4.79 µM and 0.693 µM
same,GI50,[57],0.366 µM
same,TGI,[57],50 µM and > 100 µM
same,GI50,[52],0.512 µM
same,TGI,[52],5.12 µM and 20.6 µM
